Measured values from ChEMBL document CHEMBL5260847, “Current scenario of indole derivatives with potential anti-drug-resistant cancer activity” (Eur J Med Chem, 2020).

Assays:
Assay type in all cases: functional, cell-based
HeLa = assay: Anticancer activity against human HeLa cells assessed as inhibition of cell growth
HCT-116 = assay: Antiproliferative activity against human HCT-116
A549 [1] = assay: Antiproliferative activity against human A549 cells assessed as reduction in cell viability after 48 hrs by CellTiter-Blue assay; conditions: A549, 48 h
HT-29 [2] = assay: Antiproliferative activity against human HT-29 cells assessed as reduction in cell viability incubated for 72 hrs by MTT assay; conditions: HT-29, 72 h
ZR-75-1 [3] = assay: Antiproliferative activity against multi-drug resistant human ZR-75-1 cells assessed as reduction in cell viability
HT-29 [4] = assay: Antiproliferative activity against human HT-29 cells assessed as reduction in cell viability celltiter-Glo assay
ZR-75-1 [5] = assay: Antiproliferative activity against human ZR-75-1 cells assessed as reduction in cell viability celltiter-Glo assay
H69AR [6] = assay: Antiproliferative activity against multidrug resistant human NCI-H69AR assessed as inhibition of cell proliferation by MTT assay
MCF7 = assay: Antiproliferative activity against Doxorubicin resistant human MCF7 cells assessed as reduction in cell viability
H69AR [7] = assay: Antiproliferative activity against multi-drug resistant human NCI-H69AR assessed as reduction in cell viability
A549 [8] = assay: Antiproliferative activity against human Non-small-cell lung cancer A549 cells assessed as reduction in cell viability incubated for 72 hrs by MTT assay; conditions: A549, 72 h

| IC50 (HeLa) [µM] | IC50 (HCT-116) [µM] | IC50 (HT-29 [4]) [µM] | IC50 (MCF7) [µM] | IC50 (A549 [8]) [µM] | SMILES | IC50 (A549 [1]) [µM] | IC50 (HT-29 [2]) [µM] | IC50 (ZR-75-1 [3]) [µM] | IC50 (ZR-75-1 [5]) [µM] | IC50 (H69AR [6]) [µM] | IC50 (H69AR [7]) [µM] |
| --- | --- | --- | --- | --- | --- | --- | --- | --- | --- | --- | --- |
| 6.23 | 6.23 | – | – | – | O=C1/C(=N\O)c2ccccc2N1CCOCCN1C(=O)/C(=N/O)c2ccccc21 | – | – | – | – | – | – |
| – | – | – | – | – | COc1ccc2c(c1)/C(=N/NC(=O)c1cc3cc(OC)ccc3[nH]1)C(=O)N2Cc1ccccc1 | 0.54 | 2.94 | – | – | – | – |
| – | – | 10.1 | > 100 | 3.06 | CCN(CC)CCNC(=O)c1c(C)[nH]c(/C=C2\C(=O)Nc3ccc(F)cc32)c1C [SUNITINIB] | 10.1 | – | 18.9 | 5.87 | 5.8 | 5.8 |
